Assay results published in ChEMBL document CHEMBL1158833, “Roquefortine E, a diketopiperazine from an Australian isolate of Gymnoascus reessii” (2005).
Converted amounts (≈) assume the structure as drawn.

Experiments:
[1] = Cytotoxicity against mouse NS1 cells; type: functional
Bacillus subtilis = experiment: Antimicrobial activity against Bacillus subtilis; type: functional

Row | SMILES | LD99 [1] [µg/mL] | MIC (Bacillus subtilis) [µg/mL]
1 | C=CC(C)(C)[C@@]12C[C@H]3C(=O)N/C(=C/c4c[nH]cn4)C(=O)N3[C@@H]1Nc1ccccc12 [ROQUEFORTINE C] | 50 | 6.3 (≈ 16.2 µM)
2 | C=CC(C)(C)c1[nH]cnc1/C=C1/NC(=O)[C@@H]2C[C@@]3(C(C)(C)C=C)c4ccccc4N[C@H]3N2C1=O [ROQUEFORTINE E] | 24 | 
